Like-named read-outs stand apart in the source and are kept apart here.
Assays:
Format in all cases: cell-based
human A2B receptor = target: T1, human A2B receptor (Homo sapiens, UniProt P29275); assay: Functional A2B receptor activity, recombinant HEK293 cells, cAMP (HTRF), agonist NECA; settings: read-out: Functional A2B receptor activity, HEK293, cAMP, IC50
T1 construct: expressed in transfected cells; host or cells: HEK293
T1 sequence (P29275 1-332): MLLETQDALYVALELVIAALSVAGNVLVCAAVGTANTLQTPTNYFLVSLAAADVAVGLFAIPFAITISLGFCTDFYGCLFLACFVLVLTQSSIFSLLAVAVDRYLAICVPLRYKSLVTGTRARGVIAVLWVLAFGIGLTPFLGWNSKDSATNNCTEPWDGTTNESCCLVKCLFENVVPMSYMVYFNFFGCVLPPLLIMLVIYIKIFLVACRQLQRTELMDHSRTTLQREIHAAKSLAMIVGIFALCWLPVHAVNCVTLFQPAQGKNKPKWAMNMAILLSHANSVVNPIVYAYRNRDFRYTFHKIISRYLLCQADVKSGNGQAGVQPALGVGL
How it was run: (§1)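 Cells were seeded, then treated with forskolin, test compound and agonist. After a 30 min incubation, HTRF detection reagents were added and intracellular cAMP was read. Values were scaled between an inhibitor control and DMSO before fitting.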

human A3 receptor = target: T2, human A3 receptor (Homo sapiens, UniProt P0DMS8); assay: Functional A3 receptor activity, recombinant CHO cells, cAMP (HTRF), forskolin, agonist IB-MECA; settings: recombinant CHO cells, forskolin, agonist IB-MECA, read-out: Functional A3 receptor activity, CHO, cAMP, IC50
T2 construct: expressed in transfected cells; host or cells: CHO
T2 sequence (P0DMS8 1-318): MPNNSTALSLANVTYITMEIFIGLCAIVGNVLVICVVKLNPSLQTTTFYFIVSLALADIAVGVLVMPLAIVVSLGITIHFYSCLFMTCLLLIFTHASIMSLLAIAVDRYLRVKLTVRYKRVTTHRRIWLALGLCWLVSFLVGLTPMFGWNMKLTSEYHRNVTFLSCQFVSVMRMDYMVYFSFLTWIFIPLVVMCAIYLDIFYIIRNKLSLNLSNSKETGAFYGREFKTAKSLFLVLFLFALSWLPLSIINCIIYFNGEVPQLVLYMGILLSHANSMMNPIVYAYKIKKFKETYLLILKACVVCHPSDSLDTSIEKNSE
How it was run: (§2)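 Recombinant CHO lines carrying either receptor receive forskolin, compound and the matching agonist, CPA or IB-MECA. After 30 min, HTRF reagents are added and cAMP is quantified. Values are normalized to inhibitor and neutral DMSO controls, then fitted.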

human A2A receptor = human A2A receptor (Homo sapiens, UniProt P29274); assay: Functional A2A receptor activity, recombinant HEK293 cells, cAMP (HTRF), agonist NECA; parameters: expressed in transfected cells; host or cells: HEK293; settings: read-out: Functional A2A receptor activity, HEK293, cAMP, IC50
How it was run: as §1

human A1 receptor = target: T3, human A1 receptor (Homo sapiens, UniProt P30542); assay: Functional A1 receptor activity, recombinant CHO cells, cAMP (HTRF), forskolin, agonist CPA; settings: recombinant CHO cells, forskolin, agonist CPA, read-out: Functional A1 receptor activity, CHO, cAMP, IC50
T3 construct: expressed in transfected cells; host or cells: CHO
T3 sequence (P30542 1-326): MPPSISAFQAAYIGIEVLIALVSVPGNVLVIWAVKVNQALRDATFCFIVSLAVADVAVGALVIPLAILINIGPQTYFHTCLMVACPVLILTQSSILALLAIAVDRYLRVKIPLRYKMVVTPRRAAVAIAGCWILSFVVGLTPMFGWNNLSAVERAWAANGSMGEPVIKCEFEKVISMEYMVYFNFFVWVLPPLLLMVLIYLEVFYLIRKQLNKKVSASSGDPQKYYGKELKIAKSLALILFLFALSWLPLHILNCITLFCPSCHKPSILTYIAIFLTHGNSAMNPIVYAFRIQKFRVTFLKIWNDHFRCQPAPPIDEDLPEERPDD
How it was run: as §2

Chain of human A2A receptor (P29274 whole entry): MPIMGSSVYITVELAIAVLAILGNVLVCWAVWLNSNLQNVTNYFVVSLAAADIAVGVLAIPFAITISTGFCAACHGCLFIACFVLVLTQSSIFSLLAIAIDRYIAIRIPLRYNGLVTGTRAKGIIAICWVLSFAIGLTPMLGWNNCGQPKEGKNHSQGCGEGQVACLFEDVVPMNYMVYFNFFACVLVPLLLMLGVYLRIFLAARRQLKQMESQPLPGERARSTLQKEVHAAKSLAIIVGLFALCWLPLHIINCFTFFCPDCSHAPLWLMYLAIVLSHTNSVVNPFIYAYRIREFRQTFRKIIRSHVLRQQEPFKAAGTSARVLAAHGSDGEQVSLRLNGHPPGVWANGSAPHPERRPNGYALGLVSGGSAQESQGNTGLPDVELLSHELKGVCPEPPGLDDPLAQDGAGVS

SMILES	IC50 (human A2B receptor)	IC50 (human A3 receptor)	IC50 (human A2A receptor)	IC50 (human A1 receptor)	IC50 (human A3 receptor; cAMP)	IC50 (human A1 receptor; cAMP)
COc1ncc(-c2ccc(=O)[nH]c2)c2sc(NC(=O)N3CCC4(CCOCC4)C3)nc12 [Compound 78, 8-Oxa-2-aza-spiro[4.5]decane-2-carboxylic acid [4-methoxy-7-(6-oxo-1,6-dihydro-pyridin-3-yl)-thiazolo[4,5-c]pyridin-2-yl]-amide]	< 1000 nM	> 1000 nM	< 10 nM	> 1000 nM	–	–
COc1ncc(I)c2sc(NC(=O)N3CCC4(CCOCC4)C3)nc12 [Compound 171, 8-Oxa-2-aza-spiro[4.5]decane-2-carboxylic acid (7-iodo-4-methoxy-thiazolo[4,5-c]pyridin-2-yl)-amide]	< 100 nM	> 1000 nM	< 100 nM	> 1000 nM	–	–
COc1ncc(-c2ccc(C)s2)c2sc(NC(=O)N3CCC4(CCOCC4)C3)nc12 [Compound 113, 8-Oxa-2-aza-spiro[4.5]decane-2-carboxylic acid [4-methoxy-7-(5-methyl-thiophen-2-yl)-thiazolo[4,5-c]pyridin-2-yl]-amide]	< 100 nM	> 1000 nM	< 10 nM	> 1000 nM	–	–
COc1ncc(-c2cccc(NCc3cocn3)c2)c2sc(NC(=O)N3CCC4(CCOCC4)C3)nc12 [Compound 166, 8-Oxa-2-aza-spiro[4.5]decane-2-carboxylic acid (4-methoxy-7-{3-[(oxazol-4-ylmethyl)-amino]-phenyl}-thiazolo[4,5-c]pyridin-2-yl)-amide]	< 100 nM	> 1000 nM	< 10 nM	> 1000 nM	–	–
COc1ncc(C2=CCOCC2)c2sc(NC(=O)N3CCC(C(N)=O)CC3)nc12 [Compound 106, N1-[7-(3,6-dihydro-2H-pyran-4-yl)-4-methoxy-[1,3]thiazolo[4,5-c]pyridin-2-yl]piperidine-1,4-dicarboxamide]	< 100 nM	> 1000 nM	< 10 nM	< 1000 nM	–	–
COc1ncc(C2=CCOCC2)c2sc(NC(=O)c3c[nH]c(-c4ccccn4)n3)nc12 [Compound 162, 2-Pyridin-2-yl-1H-imidazole-4-carboxylic acid [7-(3,6-dihydro-2H-pyran-4-yl)-4-methoxy-thiazolo[4,5-c]pyridin-2-yl]-amide]	< 10 nM	> 1000 nM	< 10 nM	< 1000 nM	–	–
COc1cnc(C2CCOCC2)c2sc(NC(=O)N3CCC(O)CC3)nc12 [drawing 190, reference compound]	< 1000 nM	–	< 100 nM	–	< 1000 nM	> 1000 nM
COCCNc1ncc(C(=O)Nc2nc3c(OC)ncc(C4CCOCC4)c3s2)s1 [Compound 17, N-[4-methoxy-7-(oxan-4-yl)-[1,3]thiazolo[4,5-c]pyridin-2-yl]-2-[(2-methoxyethyl)amino]-1,3-thiazole-5-carboxamide]	< 10 nM	> 1000 nM	< 10 nM	< 1000 nM	–	–
COc1cnc(N2CCOCC2)c2sc(NC(=O)N3CCC4(CCCO4)CC3)nc12 [drawing 189, reference compound]	< 1000 nM	–	< 10 nM	–	> 1000 nM	> 1000 nM
COCCOCCn1cc(-c2cnc(OC)c3nc(NC(=O)N4CCC5(CCOCC5)C4)sc23)cn1 [Compound 103, 8-Oxa-2-aza-spiro[4.5]decane-2-carboxylic acid (4-methoxy-7-{1-[2-(2-methoxy-ethoxy)-ethyl]-1H-pyrazol-4-yl}-thiazolo[4,5-c]pyridin-2-yl)-amide]	< 100 nM	> 1000 nM	< 10 nM	< 1000 nM	–	–
COc1ncc(C2CCCCC2)c2sc(NC(=O)N3CCC4(CCOCC4)C3)nc12 [Compound 62, 8-Oxa-2-aza-spiro[4.5]decane-2-carboxylic acid (7-cyclohexyl-4-methoxy-thiazolo[4,5-c]pyridin-2-yl)-amide]	< 100 nM	> 1000 nM	< 10 nM	> 1000 nM	–	–
COc1ccc(C2CCOCC2)c2sc(NC(=O)N3CCOCC3)nc12 [reference compound]	< 1000 nM	–	< 10 nM	–	> 1000 nM	< 1000 nM
COCCNc1ncc(C(=O)Nc2nc3c(OC)ncc(C4=CCOCC4)c3s2)s1 [Compound 81, N-[7-(3,6-dihydro-2H-pyran-4-yl)-4-methoxy-[1,3]thiazolo[4,5-c]pyridin-2-yl]-2-[(2-methoxyethyl)amino]-1,3-thiazole-5-carboxamide]	< 10 nM	> 1000 nM	< 10 nM	< 1000 nM	–	–
COc1ncc(-c2ccccc2)c2sc(NC(=O)N3CCC(C(=O)N(C)C)CC3)nc12 [Compound 123, Piperidine-1,4-dicarboxylic acid 4-dimethylamide 1-[(4-methoxy-7-phenyl-thiazolo[4,5-c]pyridin-2-yl)-amide]]	< 100 nM	> 1000 nM	< 10 nM	> 1000 nM	–	–
COc1ncc(-c2ccnc(N)c2)c2sc(NC(=O)N3CCC4(CCOCC4)C3)nc12 [Compound 124, 8-Oxa-2-aza-spiro[4.5]decane-2-carboxylic acid [7-(2-amino-pyridin-4-yl)-4-methoxy-thiazolo[4,5-c]pyridin-2-yl]-amide]	< 10 nM	> 1000 nM	< 10 nM	> 1000 nM	–	–
COc1ncc(C2=CCOC2)c2sc(NC(=O)N3CCC4(CCOCC4)C3)nc12 [Compound 44, N-[7-(2,5-dihydrofuran-3-yl)-4-methoxy-[1,3]thiazolo[4,5-c]pyridin-2-yl]-8-oxa-2-azaspiro[4.5]decane-2-carboxamide]	< 100 nM	> 1000 nM	< 100 nM	> 1000 nM	–	–
O=C(Nc1nc2c(OC(F)F)ncc(-c3ccccc3)c2s1)N1CCC2(CCOCC2)C1 [Compound 80, 8-Oxa-2-aza-spiro[4.5]decane-2-carboxylic acid (4-difluoromethoxy-7-phenyl-thiazolo[4,5-c]pyridin-2-yl)-amide]	< 100 nM	> 1000 nM	< 10 nM	> 1000 nM	–	–
COc1ncc(C2=CCOCC2)c2sc(NC(=O)N3CC[C@]4(CCCNC4)C3)nc12 [Compound 122, (S)-2,7-Diaza-spiro[4.5]decane-2-carboxylic acid [7-(3,6-dihydro-2H-pyran-4-yl)-4-methoxy-thiazolo[4,5-c]pyridin-2-yl]-amide]	< 100 nM	> 1000 nM	< 10 nM	> 1000 nM	–	–
COc1ncc(-c2cccc(Oc3cccnc3)c2)c2sc(NC(=O)N3CCC4(CCOCC4)C3)nc12 [Compound 160, 8-Oxa-2-aza-spiro[4.5]decane-2-carboxylic acid {4-methoxy-7-[3-(pyridin-3-yloxy)-phenyl]-thiazolo[4,5-c]pyridin-2-yl}-amide]	< 10 nM	> 1000 nM	< 10 nM	< 1000 nM	–	–
COc1ncc(-c2ccc3cc[nH]c3c2)c2sc(NC(=O)N3CCC4(CCOCC4)C3)nc12 [Compound 9, N-[7-(1H-indol-6-yl)-4-methoxy-[1,3]thiazolo[4,5-c]pyridin-2-yl]-8-oxa-2-azaspiro[4.5]decane-2-carboxamide]	< 100 nM	> 1000 nM	< 10 nM	> 1000 nM	–	–
COc1ncc(C2=CCOCC2)c2sc(NC(=O)c3c[nH]c(-c4cccnc4)n3)nc12 [Compound 140, 2-Pyridin-3-yl-1H-imidazole-4-carboxylic acid [7-(3,6-dihydro-2H-pyran-4-yl)-4-methoxy-thiazolo[4,5-c]pyridin-2-yl]-amide]	< 100 nM	> 1000 nM	< 10 nM	< 1000 nM	–	–

— patent US12344623B2, “Thiazolopyridine derivatives as adenosine receptor antagonists” (Merck Patent GmbH, priority 2019, dated 2025)
